In US20010034319A1, “Photothermal vascular targeting with bioreductive agents” (priority 1999, published 2001):

Tests used:
[1] = system: KB cells (human pharyngeal SCC); assay: Effect of POR alone on KB tumor volume in nude mice (Example IV); format: in vivo; settings: POR alone 2.50, 5.0, 7.5, 10.0 mg/kg ip vs saline control; days 0-13; FIG. 1
Method: KB cells (human pharyngeal SCC, American Type Culture Collection, Rockville, Md.) were maintained in culture medium consisting of 90% Minimal Essential medium (Gibco BRL, Grand Island, N.Y.) and 10% fetal bovine serum (Hyclone, Logan, Utah) with the addition of 10 nM nonessential amino acid (Gibco BRL) and antibiotics (penicillin, streptomycin: Gibco BRL). The cells were grown as monolayers in Falcon T150 flasks (Becton Dickinson, Franklin Lakes, N.J.) in a 37° C. humidified incubator with 5% CO2.
The effect of treatment on tumor volumes was determined using analysis of variance. […]
Fifteen mice, each with 4 tumor inoculations, were divided into 4 treatment groups and 1 control group. […] The 3 orthogonal diameters of the tumors were measured at days 0, 2, 4, 6, 8, 10, and 13 following POR injection. […]

[2] = system: KB cells (human pharyngeal SCC); assay: POR with PDL limited to tumor area, KB tumors in nude mice (Example V); format: in vivo; settings: for effect of treatment on mean tumor volume (analysis of variance): repeated two days later, FIG. 2
Method: (§1) KB cells (human pharyngeal SCC, American Type Culture Collection, Rockville, Md.) were maintained in culture medium consisting of 90% Minimal Essential medium (Gibco BRL, Grand Island, N.Y.) and 10% fetal bovine serum (Hyclone, Logan, Utah) with the addition of […] nonessential amino acid (Gibco BRL) and antibiotics (penicillin, streptomycin: Gibco BRL). The cells were grown as monolayers in Falcon T150 flasks (Becton Dickinson, Franklin Lakes, N.J.) in a 37° C. humidified incubator with 5% CO2.
(§2) Prior to inoculation, the cells were rinsed with PBS lacking calcium and magnesium (Gibco BRL), trypsinized (Gibco BRL), counted, centrifuged at 1000 rpm for 6 min., and resuspended in normal saline for a final concentration of 1,000,000 cells/ml.
(§3) Six- to seven-week-old nude mice (Charles River Labs, Wilmington, Mass.) were sterilely housed and fed ad libitum. Intradermal inoculation of 0.05 ml of cell suspension (50,000 cells) was performed under general anesthesia (ether) using a 30 gauge hypodermic needle. After 5 days, the majority of the tumors were visually apparent and palpable.
(§4) The effect of treatment on tumor volumes was determined using analysis of variance. Multiple comparisons were performed using the Student-Newman-Keuls (SNK) test. P values less than 0.05 are considered significant.
Sixteen mice, each with 4 tumor inoculations, were divided into 3 treatment groups and 1 control group. On day 6 following tumor inoculation, the treatment groups received (1) ip POR only (10 mg/kg), (2) ip saline and PDL limited to tumor area (585 nm, 10 J/cm^2, 300-500 μs; Model SPTL-1a, Candela Corporation, Wayland, Mass.), or (3) ip POR (10 mg/kg) and PDL limited to the tumor area (585 nm, 10 J/cm^2, 300-500 μs). The control group received ip saline injections only. PDL irradiation was performed 15 min. after administration of POR or vehicle, using a laser handpiece that produced a 5 mm diameter irradiated spot with a uniform energy distribution on the tumor surface. An aluminum plate with holes of various diameters was used to shield areas beyond the tumor border. […]

[3] = system: KB cells (human pharyngeal SCC); assay: POR with PDL extending beyond tumor area, KB tumors in nude mice (Example VI); format: in vivo
Method: as §1, §2, §3, §4
Twelve mice with 6 tumor inoculations were divided into 3 treatment groups and 1 control group. On day 5 following inoculation, the 4 groups were treated as in Example V except that the field of irradiation was extended to include a 2 to 3 mm periphery beyond the tumor edge. In addition, on the second treatment day, the fluence was raised from 10 to 15 J/cm^2. Tumor volume measurements were performed on days 0, 2, 4, 6, 8, 10, and 12 following the first treatment. Mice were weighed on day 0 and 6 following the first treatment. There were two anesthesia related deaths: one mouse from the control group and one mouse from the group receiving both PDL and POR died before day 10 and were therefore excluded from analysis.

normal skin tissue = assay: POR with PDL treatment of normal skin tissue, histologic evaluation (Example VII); format: in vivo, Syrian golden hamsters; settings: PDL 15 min. after ip POR; biopsies 10 min. or 2 days after irradiation; hamster flank
Method: The effect on normal skin tissue of PDL irradiation with or without POR was determined using 6 adult Syrian golden hamsters. The hamsters were divided into two groups, and hair of each animal was shaved from an area of the flank. One group was irradiated with the PDL 15 min. after ip injection of POR, and the other group was irradiated without POR administration. Biopsies of treated sites were taken 10 min. or 2 days after irradiation. Specimens were fixed with formalin, embedded in paraffin, sectioned, and stained (H&E) for histologic evaluation.

[4] = system: human squamous cancer cells; assay: PDL and POR on human squamous cancer cell tumors in hamster cheek pouch (Example VIII); format: in vivo, hamsters; settings: combined PDL (588 nm) and POR versus PDL only, FIG. 5
Description: In this example, tumors were produced in the cheek pouches of hamsters by transplantation of human squamous cancer cells according to methods well known in the art. Hamsters were divided into four treatment groups: (1) control, (2) bioreductive agent porfiromycin only (POR), (3) 588 nm pulsed dye laser only (PDL), and (4) combined PDL and POR.

hypoxic cells = settings: compared with mitomycin C; cited from earlier work
[5] = Body weight / systemic toxicity monitoring of POR in tumor-bearing mice (Example IV); settings: POR 2.50-10.0 mg/kg ip; mice weighed days 0-13
Method: Fifteen mice, each with 4 tumor inoculations, were divided into 4 treatment groups and 1 control group. Five days after tumor inoculation, the 4 treatment groups received 2.50, 5.0, 7.5, and 10.0 mg/kg intraperitoneal (ip) injections of POR (Vion Pharmaceuticals, Inc., New Haven, Conn.) dissolved in sterile water. […] All mice were anesthetized during ip injections and tumor measurements. […] The mice were weighed at the time of each tumor measurement to monitor for any systemic toxicity of POR.

CO[C@@]12[C@H](COC(N)=O)C3=C(C(=O)C(C)=C(N)C3=O)N1C[C@H]1[C@@H]2N1C (stereo partly drawn) [POR, porfiromycin]
effect of treatment on mean tumor volume (analysis of variance) [1]: no significant effect of treatment at any point in time | effect of treatment on mean tumor volume (analysis of variance) ([2]; ip POR 10 mg/kg and PDL limited to tumor area (585 nm, 10 J/cm^2)): no significant effect of treatment at any point in time | skin sloughing / epithelial necrosis in laser treatment groups ([2]; ip POR 10 mg/kg and PDL limited to tumor area, gross and histological): no gross evidence of skin sloughing or any histological evidence of epithelial necrosis | effect of treatment on mean tumor volume (analysis of variance) ([2]; ip POR only 10 mg/kg, days 0-13): no significant effect of treatment at any point in time | tumor volume versus controls (SNK test) ([3]; POR 10 mg/kg ip with PDL including 2 to 3 mm margin (10 then 15 J/cm^2), all tumors, FIG. 3): differed from the controls from day 6 onward | tumor volume versus controls (SNK test) ([3]; POR alone 10 mg/kg ip, all tumors, FIG. 3): differed from the controls from day 6 onward | tumor volume, PDL with POR versus PDL without POR ([3]; all tumors, PDL including tumor margin, FIG. 3): no significance between the effects of PDL irradiation with and without POR at any time | tumor volume, PDL with POR versus PDL without POR (SNK test) ([3]; only the largest 33% of tumors on day 0, PDL including tumor margin, FIG. 4): significant difference between PDL with and without POR at all days after day 6 | damage to normal skin after PDL irradiation (histologic and clinical) (normal skin tissue): no microscopic or clinical evidence of epithelial necrosis or other damage to tissue structures beyond the blood vessels | tumor regression and remission [4]: tumor regression and remission following laser vascular targeting is enhanced | preferential toxicity for hypoxic cells (hypoxic cells): greater for POR than mitomycin C | effect of treatment on body weight / acute toxicity [5]: no significant effect of treatment on body weight, or any other indication of acute toxicity
